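Briefly, cells in 96-well plates were exposed to five compound concentrations for 48 h, and endpoints were estimated by linear interpolation. At the GI50, growth is halved. At the TGI there is no net growth.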
Experiments:
Assay in all cases: NCI-60 cell line screen, 48 h
[1] = tested on: PC-3 prostate
[2] = tested on: NCI-H23 lung
[3] = tested on: HL-60(TB) leukemia
[4] = tested on: RPMI-8226 leukemia
[5] = tested on: OVCAR-4 ovarian
[6] = tested on: HCT-116 colon
[7] = tested on: SK-MEL-5 melanoma
[8] = tested on: MOLT-4 leukemia
[9] = tested on: HT29 colon
[10] = tested on: NCI/ADR-RES ovarian
[11] = tested on: HOP-92 NSCLC
[12] = tested on: OVCAR-3 ovarian
[13] = tested on: UACC-257 melanoma
[14] = tested on: COLO 205 colon
[15] = tested on: SK-MEL-2 melanoma
[16] = tested on: A498 renal
[17] = tested on: BT-549 breast
[18] = tested on: U251 CNS
[19] = tested on: HOP-62 NSCLC
[20] = tested on: HCT-15 colon
[21] = tested on: IGROV1 ovarian
[22] = tested on: SK-MEL-28 melanoma
[23] = tested on: KM12 colon
[24] = tested on: SK-OV-3 ovarian
[25] = tested on: T-47D breast
[26] = tested on: LOX IMVI melanoma
[27] = tested on: MCF7 breast
[28] = tested on: SW-620 colon
[29] = tested on: EKVX NSCLC
[30] = tested on: CCRF-CEM leukemia
[31] = tested on: MDA-MB-468 breast
[32] = tested on: TK-10 renal
[33] = tested on: 786-0 renal
[34] = tested on: SF-295 CNS
[35] = tested on: MDA-MB-435
[36] = tested on: RXF 393 renal
[37] = tested on: MALME-3M melanoma
[38] = tested on: SF-539 CNS
[39] = tested on: MDA-MB-231 breast
[40] = tested on: NCI-H522 lung
[41] = tested on: SNB-19 CNS
[42] = tested on: SN12C renal
[43] = tested on: UACC-62 melanoma
[44] = tested on: CAKI-1 renal
[45] = tested on: HCC-2998 colon
[46] = tested on: HS 578T breast
[47] = tested on: A549 NSCLC
[48] = tested on: M14 melanoma
[49] = tested on: ACHN renal
[50] = tested on: NCI-H460 lung
[51] = tested on: SNB-75 CNS
[52] = tested on: UO-31 renal
[53] = tested on: OVCAR-5 ovarian
[54] = tested on: K-562 leukemia
[55] = tested on: SF-268 CNS
[56] = tested on: DU-145 prostate
[57] = tested on: OVCAR-8 ovarian
[58] = tested on: SR leukemia
[59] = tested on: NCI-H226 lung

COc1ccc(/C=C/c2nc3ccccc3c(=O)n2CC(=O)Nc2ccccc2)cc1
GI50 [1]: > 100 µM | TGI [1]: > 100 µM | GI50 [2]: 6.01 µM | TGI [2]: > 62.4 µM | GI50 [3]: > 100 µM | TGI [3]: > 100 µM | GI50 [4]: > 100 µM | TGI [4]: > 100 µM | GI50 [5]: 0.734 µM | GI50 [6]: 1.26 µM | TGI [6]: > 39.4 µM | GI50 [7]: > 91.4 µM | TGI [7]: > 100 µM | GI50 [8]: > 100 µM | TGI [8]: > 100 µM | GI50 [9]: > 100 µM | TGI [9]: > 100 µM | GI50 [10]: 4.64 µM | TGI [10]: > 100 µM | GI50 [11]: 2.78 µM | TGI [11]: 13.3 µM | GI50 [12]: 3.91 µM | TGI [12]: > 100 µM | GI50 [13]: > 85.1 µM | TGI [13]: > 100 µM | GI50 [14]: > 37.3 µM | TGI [14]: > 77.7 µM | GI50 [15]: > 77.8 µM | TGI [15]: > 100 µM | GI50 [16]: 2.23 µM | TGI [16]: 5.2 µM | GI50 [17]: > 74.6 µM | TGI [17]: > 100 µM | GI50 [18]: 0.972 µM | TGI [18]: 10.9 µM | GI50 [19]: 4.31 µM | TGI [19]: 19.2 µM | GI50 [20]: > 100 µM | TGI [20]: > 100 µM | GI50 [21]: 12.6 µM | TGI [21]: > 100 µM | GI50 [22]: > 100 µM | TGI [22]: > 100 µM | GI50 [23]: > 100 µM | TGI [23]: > 100 µM | GI50 [24]: 2.98 µM | TGI [24]: 18.7 µM | GI50 [25]: 1.8 µM | TGI [25]: > 28.9 µM | GI50 [26]: 4.38 µM | TGI [26]: > 100 µM | GI50 [27]: > 26 µM | TGI [27]: > 100 µM | GI50 [28]: > 21.3 µM | TGI [28]: > 100 µM | GI50 [29]: > 69.4 µM | TGI [29]: > 100 µM | GI50 [30]: > 100 µM | TGI [30]: > 100 µM | GI50 [31]: 6.23 µM | TGI [31]: > 53.7 µM | GI50 [32]: 2.05 µM | TGI [32]: 5.43 µM | GI50 [33]: 1.19 µM | TGI [33]: 3.18 µM | GI50 [34]: 2.48 µM | TGI [34]: 30.8 µM | GI50 [35]: > 93.4 µM | TGI [35]: > 100 µM | GI50 [36]: 2.23 µM | TGI [36]: 10.6 µM | GI50 [37]: 5.2 µM | TGI [37]: 55.9 µM | GI50 [38]: 3.42 µM | TGI [38]: 14.5 µM | GI50 [39]: 2.01 µM | TGI [39]: 7.54 µM | GI50 [40]: 16.8 µM | TGI [40]: > 100 µM | GI50 [41]: 3.74 µM | TGI [41]: > 73.9 µM | GI50 [42]: 1.82 µM | TGI [42]: > 36.6 µM | GI50 [43]: > 62.4 µM | TGI [43]: > 100 µM | GI50 [44]: 1.7 µM | TGI [44]: > 23.9 µM | GI50 [45]: > 100 µM | TGI [45]: > 100 µM | GI50 [46]: 2.79 µM | TGI [46]: > 92.5 µM | GI50 [47]: 0.731 µM | TGI [47]: > 42.7 µM | GI50 [48]: 27 µM | TGI [48]: > 51 µM | GI50 [49]: 0.718 µM | TGI [49]: 2.49 µM | GI50 [50]: 2.25 µM | TGI [50]: > 100 µM | GI50 [51]: 1.27 µM | TGI [51]: 4.97 µM | GI50 [52]: 1.44 µM | TGI [52]: 3.64 µM | GI50 [53]: 6.47 µM | TGI [53]: > 100 µM | GI50 [54]: > 100 µM | TGI [54]: > 100 µM | GI50 [55]: 19.1 µM | TGI [55]: > 100 µM | GI50 [56]: > 100 µM | TGI [56]: > 100 µM | GI50 [57]: 4.74 µM | TGI [57]: > 100 µM | GI50 [58]: > 100 µM | TGI [58]: > 100 µM | GI50 [59]: 2.42 µM | TGI [59]: 16.4 µM
